Type in all cases: in vivo
The test system of assay [1] is blackgrass (Alopecurus myosuroides). The assay is described as follows: Test C preemergence, blackgrass. To be noted: 0 is no effect, 100 is complete control. A digest of the protocol:
(§1)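 Herbicidal effect was estimated visually on a 0–100 scale 10 or 12 days after spraying. Formulation: non-phytotoxic solvent mixture with surfactant. Timing: directed soil spray after sowing, or postemergence on seedlings bearing one or two leaves.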

Assay [2] relates to oat, wild (wild oat, Avena fatua). The assay is described as follows: Test C preemergence, wild oat. The conditions noted are these: 0 is no effect, 100 is complete control. In a few lines: as §1
In assay [3] the test system is pigweed, palmer (palmer amaranth, Amaranthus palmeri). The assay is described as follows: Test C preemergence, palmer amaranth. The conditions noted are these: 0 is no effect, 100 is complete control. In a few lines: as §1
Assay [4] deals with ragweed (common ragweed, Ambrosia artemisiifolia). The assay can be described thus: Test C preemergence, ragweed. To be noted: 0 is no effect, 100 is complete control. In a few lines: as §1
The subject of another assay is soybean (Glycine max). The assay is described as follows: Test C preemergence, soybean. The conditions noted are these: 0 is no effect, 100 is complete control. A digest of the protocol:
as §1

For another assay, the system named is corn (Zea mays). The assay can be described thus: Test C postemergence, corn. The conditions noted are these: visual injury, 0 to 100 scale (0 no effect, 100 complete control).
Assay [5] relates to goosegrass (Eleusine indica). The assay is described as follows: Test C postemergence, goosegrass. The conditions noted are these: visual injury, 0 to 100 scale (0 no effect, 100 complete control). A digest of the protocol:
as §1

Assay [6] relates to horseweed (Erigeron canadensis). The assay is described as follows: Test C postemergence, horseweed. To be noted: visual injury, 0 to 100 scale (0 no effect, 100 complete control). A digest of the protocol:
as §1

Assay [7] concerns ducksalad (Heteranthera limosa). The assay is described as follows: Test D flooded paddy test, ducksalad. The conditions noted are these: 250 g ai/ha, Flood; applied to paddy water at 2-leaf stage; visual rating after 13 days; scale 0 (no effect) to 100 (complete control). On the set-up: key: 0 = no effect, 100 = complete control. In a few lines:
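Under 3 cm of standing water, kept constant after treatment, 2-leaf plants received compound via the paddy water. Ratings on a 0–100 control scale were assigned visually after 13 greenhouse days; a dash denotes no test result.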

We go through one compound from patent publication US20240158348A1, “HERBICIDAL CYCLIC AMIDES N-SUBSTITUTED WITH A HALOALKYLSULFONYLANILIDE GROUP” (FMC Corporation, priority 2021, published 2024).

For `Cc1c(NS(=O)(=O)C(F)(F)F)cc(N2CCC(OCC3CCC3)C2=O)c(C)c1F` (centres unmarked) [Compound 64], the “Plant response rating (0 to 100 scale), Blackgrass” value in assay [1] (31 g ai/ha Preemergence) came to 20; in assay [1] (125 g ai/ha Preemergence), 70. Moreover, the figures for the “Plant response rating (0 to 100 scale), Oat, Wild” value in assay [2] (31 g ai/ha Preemergence) and in assay [2] (125 g ai/ha Preemergence) were 20 and 90, respectively. The “Plant response rating (0 to 100 scale), Pigweed, Palmer” value in assay [3] (31 g ai/ha Preemergence) and in [3] (125 g ai/ha Preemergence) was 100 in each case. Moreover, the “Plant response rating (0 to 100 scale), Ragweed” value in assay [4] (31 g ai/ha Preemergence) is reported as 90; in assay [4] (125 g ai/ha Preemergence) it was 100. Besides, the “Plant response rating (0 to 100 scale), Soybean” value in the assay on soybean (Glycine max) (31 g ai/ha Preemergence) turned out to be 40; in the assay on soybean (Glycine max) (125 g ai/ha Preemergence) it was 90. The “Corn plant response rating” value in the assay with corn (Zea mays) (31 g ai/ha Postemergence) came to 0; in the assay on corn (Zea mays) (125 g ai/ha Postemergence), 10. Moreover, the “Goosegrass plant response rating” value in [5] (31 g ai/ha Postemergence) worked out at 30; in [5] (125 g ai/ha Postemergence), 70. In addition, the “Horseweed plant response rating” value in assay [6] (31 g ai/ha Postemergence) is recorded as 10; in assay [6] (125 g ai/ha Postemergence), 60. For the same compound, the “Plant response rating, Ducksalad” value in [7] stood at 80.
